Reference: patent US9062066B2, “Anti-inflammatory compound having inhibitory activity against multiple tyrosine kinases and pharmaceutical composition containing same” (KOREA INSTITUTE OF SCIENCE AND TECHNOLOGY, priority 2010, dated 2015)
Where two headings read alike, the source gives them in different places.

How the values were obtained:
[1] = system: oxazolone-induced skin inflammation of Balb/C mouse ears; assay: mouse skin inflammatory model induced by oxazolone (ear thickness); assay type: in vivo; conditions: 20 ul of 0.1% compound topical on ear, 36 hours after oxazolone
Description: The compounds of the present invention were evaluated for their effective anti-inflammatory activity using a skin inflammatory animal model of 8 weeks old Balb/C mouse ears induced by oxazolone. […] After 4 days, the thickness of ear was measured using a caliper for the thickness value of ear before the induction of inflammation. […] After 36 hours, the thickness of ear was measured for the increased thickness induced by inflammation. […] The average value was obtained in each group (n=4).

Fgr tyrosine kinase = Fgr tyrosine kinase (Homo sapiens (Human), UniProt P09769); assay: in vitro Fgr tyrosine kinase inhibition; assay type: biochemical; conditions: 1 uM compound; read-out: % inhibition against Fgr
Fgr tyrosine kinase, sequence (P09769 whole entry): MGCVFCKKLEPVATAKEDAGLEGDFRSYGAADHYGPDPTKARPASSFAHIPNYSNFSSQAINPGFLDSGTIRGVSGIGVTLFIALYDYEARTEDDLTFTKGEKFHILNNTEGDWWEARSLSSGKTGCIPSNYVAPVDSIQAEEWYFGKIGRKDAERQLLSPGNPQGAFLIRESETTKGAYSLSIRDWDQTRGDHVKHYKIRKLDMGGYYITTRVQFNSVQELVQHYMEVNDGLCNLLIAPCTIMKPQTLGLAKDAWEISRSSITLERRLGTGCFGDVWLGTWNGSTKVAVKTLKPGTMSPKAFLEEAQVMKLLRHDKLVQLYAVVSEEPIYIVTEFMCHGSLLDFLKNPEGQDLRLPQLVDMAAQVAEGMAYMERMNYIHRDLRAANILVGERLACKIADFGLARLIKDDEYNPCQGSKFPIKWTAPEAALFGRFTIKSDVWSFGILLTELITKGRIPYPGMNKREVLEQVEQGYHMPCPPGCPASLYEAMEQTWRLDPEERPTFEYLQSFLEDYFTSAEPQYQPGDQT

Lyn tyrosine kinase = Lyn tyrosine kinase (Homo sapiens (Human), UniProt P07948); assay: in vitro Lyn tyrosine kinase inhibition; assay type: biochemical; conditions: 1 uM compound; read-out: % inhibition against Lyn
Lyn tyrosine kinase, sequence (P07948 whole entry): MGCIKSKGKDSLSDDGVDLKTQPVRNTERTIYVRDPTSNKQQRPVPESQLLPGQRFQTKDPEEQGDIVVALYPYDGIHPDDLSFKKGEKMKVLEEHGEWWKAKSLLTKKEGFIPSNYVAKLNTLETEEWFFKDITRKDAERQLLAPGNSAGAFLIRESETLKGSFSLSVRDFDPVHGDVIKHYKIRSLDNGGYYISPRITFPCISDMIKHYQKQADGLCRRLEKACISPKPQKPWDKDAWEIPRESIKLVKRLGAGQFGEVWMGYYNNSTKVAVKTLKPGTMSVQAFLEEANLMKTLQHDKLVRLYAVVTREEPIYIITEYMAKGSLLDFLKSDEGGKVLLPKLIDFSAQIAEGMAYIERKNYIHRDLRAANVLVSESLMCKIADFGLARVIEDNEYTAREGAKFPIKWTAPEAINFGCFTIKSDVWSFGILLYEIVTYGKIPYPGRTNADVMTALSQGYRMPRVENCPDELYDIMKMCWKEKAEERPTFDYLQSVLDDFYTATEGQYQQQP

Hck tyrosine kinase = Hck tyrosine kinase (Homo sapiens (Human), UniProt P08631); assay: in vitro Hck tyrosine kinase inhibition; assay type: biochemical; conditions: 1 uM compound; read-out: % inhibition against Hck
Hck tyrosine kinase, sequence (P08631 whole entry): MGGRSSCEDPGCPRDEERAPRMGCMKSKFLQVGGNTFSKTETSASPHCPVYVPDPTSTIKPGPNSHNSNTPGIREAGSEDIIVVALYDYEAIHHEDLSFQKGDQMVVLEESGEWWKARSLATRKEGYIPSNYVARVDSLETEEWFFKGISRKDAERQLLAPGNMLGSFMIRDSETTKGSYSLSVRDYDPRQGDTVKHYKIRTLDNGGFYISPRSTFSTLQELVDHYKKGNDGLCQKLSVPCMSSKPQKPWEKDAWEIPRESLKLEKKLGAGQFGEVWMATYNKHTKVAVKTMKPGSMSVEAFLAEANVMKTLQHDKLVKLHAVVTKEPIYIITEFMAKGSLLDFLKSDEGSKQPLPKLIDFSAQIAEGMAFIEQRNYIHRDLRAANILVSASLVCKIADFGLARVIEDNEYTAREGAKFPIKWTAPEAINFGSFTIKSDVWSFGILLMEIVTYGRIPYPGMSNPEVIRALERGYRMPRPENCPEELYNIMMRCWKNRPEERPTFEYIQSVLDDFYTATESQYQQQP

c-Src tyrosine kinase = c-Src tyrosine kinase (Homo sapiens (Human), UniProt P12931); assay: in vitro c-Src tyrosine kinase inhibition (32P-ATP, poly(D4Y)n substrate); assay type: biochemical; conditions: 1 uM compound; read-out: % inhibition against c-Src
c-Src tyrosine kinase, sequence (P12931 whole entry, looked up, the tested form may be a part): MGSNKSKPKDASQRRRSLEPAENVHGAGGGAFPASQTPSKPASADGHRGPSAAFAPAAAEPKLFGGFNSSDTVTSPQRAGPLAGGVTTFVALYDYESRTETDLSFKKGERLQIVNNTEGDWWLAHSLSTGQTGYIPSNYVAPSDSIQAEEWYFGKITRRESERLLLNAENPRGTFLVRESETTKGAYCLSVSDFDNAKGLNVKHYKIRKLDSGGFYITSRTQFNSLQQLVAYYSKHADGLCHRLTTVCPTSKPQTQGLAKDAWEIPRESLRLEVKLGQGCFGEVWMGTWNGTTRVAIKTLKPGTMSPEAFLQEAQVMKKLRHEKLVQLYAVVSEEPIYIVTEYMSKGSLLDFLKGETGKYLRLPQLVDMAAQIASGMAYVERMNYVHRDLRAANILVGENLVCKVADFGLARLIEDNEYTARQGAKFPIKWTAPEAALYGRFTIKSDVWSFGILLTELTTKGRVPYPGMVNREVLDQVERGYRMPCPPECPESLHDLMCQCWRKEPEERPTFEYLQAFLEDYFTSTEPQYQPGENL

DDR1 tyrosine kinase = DDR1 tyrosine kinase (Homo sapiens (Human), UniProt Q08345); assay: in vitro DDR1 tyrosine kinase inhibition (GST-fused kinase domain); assay type: biochemical; conditions: 1 uM compound; read-out: % inhibition against DDR1
DDR1 tyrosine kinase, sequence (Q08345 610-905): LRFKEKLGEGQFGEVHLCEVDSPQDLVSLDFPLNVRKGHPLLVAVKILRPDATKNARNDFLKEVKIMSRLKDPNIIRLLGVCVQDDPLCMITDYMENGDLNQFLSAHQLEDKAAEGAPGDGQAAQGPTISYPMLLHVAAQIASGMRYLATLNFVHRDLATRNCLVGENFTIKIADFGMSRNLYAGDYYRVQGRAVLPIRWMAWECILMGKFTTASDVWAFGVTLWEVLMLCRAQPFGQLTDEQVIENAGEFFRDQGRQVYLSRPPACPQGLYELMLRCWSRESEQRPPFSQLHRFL

[2] = system: TNF-α synthesis in J744A.1 macrophages; assay: inhibition of TNF-α synthesis in LPS-activated macrophages (ELISA); assay type: cell-based; conditions: Macrophage, read-out: Inhibition (%) of TNF-α synthesis
[3] = system: α-smooth muscle actin protein expression in skin fibroblast cells; assay: inhibition of α-smooth muscle actin expression in fibroblast activated by type I collagen and TGF-β1 (western blotting); assay type: cell-based, Balb/C mouse; conditions: Mus musculus, 0.5 uM compound, 10 ng/ml TGF-β1, 48 hours, type I collagen, read-out: Inhibition (%) of α-smooth muscle actin increase
Source text: When fibroblast, […] alpha smooth muscle cells are converted to myofibroblast by activation, one of characteristic features is that α-smooth muscle actin protein expression is increased. Also myoblast cells with the increased α-smooth muscle actin expression have a character of an increased migration. These phenomena appear together with the activation of inflammatory cells and the activated myoblast-type cells are known to contribute directly to the pathology of inflammatory diseases. […] In this experiment, the expression level of alpha smooth muscle actin can be quantificated by measuring the density of α-smooth muscle actin protein band with densitometer after developing the X-ray film of chemiluminescence signal in western blotting experiment.

mouse skin fibroblast = assay: inhibition of migration of activated fibroblast (scratch wound); assay type: cell-based; conditions: 0.5 uM compound, 10 ng/ml TGF-β1, 24 hours, read-out: Inhibition (%) of migration of activated fibroblast
Description: The straight line of regular width was made using a micro pipette tip for a scratch wound on the mono-layer culture, and then the culture was exchanged to DMEM medium and incubated with 10 ng/ml of TGF-β1 in cell culture incubator of 37° C. for 24 hours. The cultured cells were fixed using formalin and stained with crystal violet. Photo-pictures were taken at 100× magnification in five location selected randomly in the scratched wound site of each stained culture dish and then the number of the cells moved into the scratched wound area was counted and averaged.

[4] = system: NO synthesis in J744A.1 macrophage; assay: inhibition of nitric oxide (NO) synthesis in LPS-activated macrophages (Griess reagent); assay type: cell-based; conditions: read-out: Inhibition (%) of NO synthesis
DDR2 tyrosine kinase = DDR2 tyrosine kinase (Homo sapiens (Human), UniProt Q16832); assay: in vitro DDR2 tyrosine kinase inhibition (GST-fused kinase domain); assay type: biochemical; conditions: 1 uM compound; read-out: % inhibition against DDR2
DDR2 tyrosine kinase, sequence (Q16832 563-849): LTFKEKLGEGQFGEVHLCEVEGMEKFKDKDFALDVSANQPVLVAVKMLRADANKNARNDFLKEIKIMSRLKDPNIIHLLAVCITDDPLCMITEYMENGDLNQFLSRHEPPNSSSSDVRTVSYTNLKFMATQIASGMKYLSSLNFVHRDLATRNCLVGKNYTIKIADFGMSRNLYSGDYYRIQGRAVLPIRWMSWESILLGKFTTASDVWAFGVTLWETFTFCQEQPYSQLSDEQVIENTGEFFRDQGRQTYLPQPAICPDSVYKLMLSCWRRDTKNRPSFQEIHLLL

[5] = 10 μM compound, 100 ng/ml LPS, 6 hours

SMILES	Inhibition (%) of increase of ear thickness [1] [%]	inhibition at 1 µM (Fgr tyrosine kinase) [%]	inhibition at 1 µM (Lyn tyrosine kinase) [%]	inhibition at 1 µM (Hck tyrosine kinase) [%]	inhibition at 1 µM (c-Src tyrosine kinase) [%]	inhibition at 1 µM (DDR1 tyrosine kinase) [%]	inhibition at 10 µM [2, 5] [%]	inhibition at 0.5 µM [3] [%]	inhibition at 0.5 µM (mouse skin fibroblast) [%]	inhibition at 10 µM ([4]; 10 μM compound, LPS, 24 hours) [%]	inhibition at 1 µM (DDR2 tyrosine kinase) [%]	inhibition at 10 µM ([2]; 6 h) [%]	inhibition at 10 µM ([4]; 24 h) [%]
Oc1cccc(Nc2ncnc3cc(-c4ccc(CN5CCCCC5)cc4)sc23)c1 [LCB 03-0035, 3-(6-(4-(piperidin-1-ylmethyl)phenyl)thieno[3,2-d]pyrimidin-4-ylamino)phenol]	31	> 80	> 80	> 80	> 80	> 80	65	55	31	91	> 80		
Oc1cccc(Nc2ccnc3cc(-c4cccc(CN5CCCC5)c4)sc23)c1 [LCB 03-0107, 3-(2-(3-(pyrrolidin-1-ylmethyl)phenyl)thieno[3,2-b]pyridin-7-ylamino)phenol]	59	> 70	> 70	> 70	> 70	> 80		71	58		> 80	45	81
CN1CCN(Cc2cccc(-c3cc4nccc(Nc5cccc(O)c5)c4s3)c2)CC1 [LCB 03-0108, 3-(2-(3-((4-methylpiperazin-1-yl)methyl)phenyl)thieno[3,2-b]pyridin-7-ylamino)phenol]	63	> 80	> 80	> 80	> 80	> 80		75	56		> 80	53	92
Oc1cccc(Nc2ncnc3cc(-c4ccc(CN5CCCCC5)o4)sc23)c1 [LCB 03-0088, 3-(6-(5-(piperidin-1-ylmethyl)furan-2-yl)thieno[3,2-d]pyrimidin-4-ylamino)phenol]	51	> 70	> 70	> 70	> 70	> 90		52	27		> 90	73	97
CCN(CC)Cc1cccc(-c2cc3ncnc(Nc4cccc(O)c4)c3s2)c1.Cl [LCB 03-0063, 3-(6-(3-((diethylamino)methyl)phenyl)thieno[3,2-d]pyrimidin-4-ylamino)phenol]	51	> 80	> 80	> 80	> 80	> 80	85	61	36	89	> 80		
Oc1cccc(Nc2ccnc3cc(-c4cccc(CN5CCCCC5)c4)sc23)c1 [LCB 03-0109, 3-(2-(3-(piperidin-1-ylmethyl)phenyl)thieno[3,2-b]pyridin-7-ylamino)phenol]	52	> 70	> 70	> 70	> 70	> 80		67	48		> 80	56	90
Oc1cccc(Nc2ccnc3cc(-c4ccc(CN5CCCC5)cc4)sc23)c1 [LCB 03-0080, 3-(2-(4-(pyrrolidin-1-ylmethyl)phenyl)thieno[3,2-b]pyridin-7-ylamino)phenol]	53	> 60	> 60	> 60	> 60	> 80		62	41		> 80	59	78
